Measurements published in patent US20020026053A1, “Novel 3-(substituted) -2- indolinones compounds and use thereof as inhibitors of protein kinase activity” (priority 1997, published 2002).

Key:
FLK-1 receptor = assay: FLK-1 Assay (cellular/catalytic ELISA, VEGF-stimulated phosphotyrosine); type: cell-based; set-up: concentration or dose not given beside the values
Outline: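 NIH3T3 C7#3 cells engineered to express Flk-1 were serum-starved overnight (0.1% FBS), then exposed to compound for 2 h at 37 °C (final dilution 1:200, 0.5% DMSO) before VEGF stimulation. Lysates captured on anti-FLK-1 antiserum plates; phosphotyrosine detected by UB40 antibody/POD-ABTS ELISA versus untreated controls.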

PDGF-R = PDGF-R Assay (cellular ELISA, U1242 cells); type: cell-based; set-up: concentration or dose not given beside the values
Outline: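 U1242 cells seeded in 0.5% serum, serum-starved, then exposed to compound for 2 hr at 37°C before 5–10 min ligand stimulation and lysis in HNTG. Lysate captured on receptor-antibody-coated plates; phosphotyrosine detected with polyclonal anti-pTyr, goat anti-rabbit IgG and ABTS/H2O2, A410 (ref 630 nm), versus untreated cells.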

SMILES | Flk Kinase % Inhibition (P.110) (FLK-1 receptor) | PDGF Kinase % Inhibition (P.119) (PDGF-R)
O=C1Nc2c(Br)cc(Br)cc2C1=Cc1ccccc1Cl [10736/A11] | −12.4% | −5.6%
Cc1cccc(C=C2C(=O)Nc3ccc(I)cc32)c1 [10736/B04] | 3.0% | 11.9%
COc1cccc(C=C2C(=O)Nc3ccc(I)cc32)c1 [10736/B10] | 2.5% | 1.8%
Cc1c(Br)ccc2c1C(=Cc1ccccc1F)C(=O)N2 [10736/C08] | 3.1% | 1.4%
CCc1ccc(C=C2C(=O)Nc3ccc(S(=O)(=O)Nc4ccc(C(F)(F)F)cc4)cc32)cc1 [10736/E09] | 14.1% | −0.4%
Cc1ccc(C=C2C(=O)Nc3ccc(S(=O)(=O)N4CCOCC4)cc32)cc1 [10736/F05] | 15.1% | −4.8%
O=C1Nc2ccc(S(=O)(=O)N3CCOCC3)cc2C1=Cc1ccc(Cl)cc1 [10736/F02] | 23.9% | −14.4%
O=C1Nc2c(Br)cc(Br)cc2C1=Cc1ccccc1C(F)(F)F [10736/A03] | 5.7% | 31.6%
CNS(=O)(=O)c1ccc2c(c1)C(=Cc1cccc(C)c1)C(=O)N2 [10736/D04] | 4.3% | 15.0%
Cc1ccc(C=C2C(=O)Nc3ccc(Br)c(C)c32)cc1 [10736/C05] | 4.6% | 16.7%
Cc1c(Br)cc(Br)c2c1C(=Cc1ccc(F)cc1Cl)C(=O)N2 [10719/H09] | 2.5% | 
Cc1c(Br)cc(Br)c2c1C(=Cc1cc(F)cc(F)c1)C(=O)N2 [10735/H04] | 12.8% | 1.2%
Cc1c(Br)ccc2c1C(=Cc1cccc(F)c1)C(=O)N2 [10736/C07] | 4.4% | 14.1%
CNS(=O)(=O)c1ccc2c(c1)C(=Cc1cccc(Cl)c1)C(=O)N2 [10736/D06] | 12.2% | 19.8%
Cc1c(Br)ccc2c1C(=Cc1ccc(Cl)cc1)C(=O)N2 [10736/C02] | −0.9% | 2.7%
Cc1c(Br)cc(Br)c2c1C(=Cc1ccccc1C#N)C(=O)N2 [10735/H07] | 21.4% | −0.9%
CNS(=O)(=O)c1ccc2c(c1)C(=Cc1cccc(F)c1)C(=O)N2 [10736/D07] | 7.0% | 4.4%
O=C1Nc2ccc(S(=O)(=O)N3CCOCC3)cc2C1=Cc1ccccc1F [10736/F08] | 7.4% | −20.1%
O=C1Nc2ccc(I)cc2C1=Cc1ccccc1Cl [10736/B11] | 7.3% | −15.3%
O=C1Nc2ccc(S(=O)(=O)Nc3ccc(C(F)(F)F)cc3)cc2C1=Cc1cccc(F)c1 [10736/E07] | 15.3% | 18.5%
Cc1c(Br)cc(Br)c2c1C(=Cc1ccc(O)cc1)C(=O)N2 [10719/H07] | 2.4% | 
O=C1Nc2c(Br)cc(Br)cc2C1=Cc1ccccc1F [10736/A08] | −13.4% | 11.0%
COc1cccc(C=C2C(=O)Nc3ccc(S(=O)(=O)Nc4ccc(C(F)(F)F)cc4)cc32)c1 [10736/E10] | 27.2% | 26.8%
O=C1Nc2ccc(CCCl)cc2C1=Cc1ccc(Cl)cc1Cl [10735/G10] | 6.8% | −8.8%
Cc1cccc(C=C2C(=O)Nc3ccc(S(=O)(=O)N4CCOCC4)cc32)c1 [10736/F04] | 16.5% | 3.6%
Cc1c(Br)cc(Br)c2c1C(=Cc1c(F)cc(F)cc1F)C(=O)N2 [10720/H02] | 9.7% | 
Cc1c(Br)cc(Br)c2c1C(=Cc1ccc(-c3ccccc3)cc1)C(=O)N2 [10735/H11] | 28.3% | 1.9%

SMILES | Flk Kinase % Inhibition (P.110) (FLK-1 receptor) | PDGF Kinase % Inhibition (P.119) (PDGF-R)
Cc1ccc(C=C2C(=O)Nc3ccc(S(=O)(=O)Nc4ccc(C(F)(F)F)cc4)cc32)cc1 [10736/E05] | 30.2% | 18.5%
O=C1Nc2ccc(I)cc2C1=Cc1ccc(Cl)cc1 [10736/B02] | 1.0% | −10.0%
O=C1Nc2ccc(I)cc2C1=Cc1ccccc1F [10736/B08] | 5.0% | −0.4%
O=C1Nc2ccc(S(=O)(=O)Nc3ccc(C(F)(F)F)cc3)cc2C1=Cc1cccc(Cl)c1 [10736/E06] | 20.1% | 10.6%
Cc1c(Br)cc(Br)c2c1C(=Cc1ccc(Cl)cc1Cl)C(=O)N2 [10735/H10] | 24.0% | −0.2%
COc1cc(O)ccc1C=C1C(=O)Nc2c(Br)cc(Br)c(C)c21 [10720/H03] | 1.8% | 
O=C1Nc2ccc(S(=O)(=O)N3CCOCC3)cc2C1=Cc1cccc(Cl)c1 [10736/F06] | 14.5% | 12.3%
O=C1Nc2c(Br)cc(Br)cc2C1=Cc1ccc(Cl)cc1 [10736/A02] | −6.0% | 24.2%
COc1cccc(C=C2C(=O)Nc3ccc(Br)c(C)c32)c1 [10736/C10] | 1.1% | 1.4%
Cc1ccc(C=C2C(=O)Nc3ccc(I)cc32)cc1 [10736/B05] | −0.5% | −3.0%
O=C1Nc2ccc(S(=O)(=O)N3CCOCC3)cc2C1=Cc1ccccc1C(F)(F)F [10736/F03] | 16.6% | −3.0%
Cc1ccc(C=C2C(=O)Nc3c(Br)cc(Br)cc32)cc1 [10736/A05] | −19.4% | 8.4%
Cc1c(Br)cc(Br)c2c1C(=Cc1ccc(F)cc1C(F)(F)F)C(=O)N2 [10719/H11] | 12.3% | 
Cc1cccc(C=C2C(=O)Nc3c(Br)cc(Br)cc32)c1 [10736/A04] | −13.0% | 13.2%
CCc1ccc(C=C2C(=O)Nc3ccc(S(=O)(=O)N4CCOCC4)cc32)cc1 [10736/F09] | 24.0% | 2.7%
CCc1ccc(C=C2C(=O)Nc3ccc(Br)c(C)c32)cc1 [10736/C09] | 11.2% | −9.6%
Cc1c(Br)cc(Br)c2c1C(=Cc1cccc(C(F)(F)F)c1)C(=O)N2 [10735/H05] | 29.5% | 9.1%
Cc1c(Br)cc(Br)c2c1C(=Cc1c(F)cccc1F)C(=O)N2 [10735/H08] | 29.1% | −2.6%
O=C1Nc2ccc(S(=O)(=O)Nc3ccc(C(F)(F)F)cc3)cc2C1=Cc1ccc(Cl)cc1 [10736/E02] | 8.2% | 21.5%
Cc1c(Br)ccc2c1C(=Cc1ccccc1C(F)(F)F)C(=O)N2 [10736/C03] | 6.5% | 25.5%
O=C1Nc2ccc(I)cc2C1=Cc1ccccc1C(F)(F)F [10736/B03] | 11.3% | 63.2%
CNS(=O)(=O)c1ccc2c(c1)C(=Cc1ccccc1F)C(=O)N2 [10736/D08] | 11.0% | 1.8%
O=C1Nc2ccc(S(=O)(=O)N3CCOCC3)cc2C1=Cc1cccc(F)c1 [10736/F07] | 16.6% | −4.3%
O=C1Nc2c(Br)cc(Br)cc2C1=Cc1cccc(Cl)c1 [10736/A06] | −18.2% | 32.1%
Cc1c(Br)cc(Br)c2c1C(=Cc1ccc(N(C)C)cc1)C(=O)N2 [10719/H08] | 11.6% | 
Cc1c(Br)cc(Br)c2c1C(=Cc1cccc([N+](=O)[O-])c1)C(=O)N2 [10719/H10] | −0.7% | 
